This test addresses α7-subtype of nicotinic receptors (Rattus norvegicus, UniProt Q05941). Put plainly: biochemical. In kind it is binding.

Molecules are shown by their SMILES. Where a name gives a salt, the structure may show the parent alone. Read-outs that look alike come from different tables or passages of the source.

Sequence of α7-subtype of nicotinic receptors (Q05941 23-502): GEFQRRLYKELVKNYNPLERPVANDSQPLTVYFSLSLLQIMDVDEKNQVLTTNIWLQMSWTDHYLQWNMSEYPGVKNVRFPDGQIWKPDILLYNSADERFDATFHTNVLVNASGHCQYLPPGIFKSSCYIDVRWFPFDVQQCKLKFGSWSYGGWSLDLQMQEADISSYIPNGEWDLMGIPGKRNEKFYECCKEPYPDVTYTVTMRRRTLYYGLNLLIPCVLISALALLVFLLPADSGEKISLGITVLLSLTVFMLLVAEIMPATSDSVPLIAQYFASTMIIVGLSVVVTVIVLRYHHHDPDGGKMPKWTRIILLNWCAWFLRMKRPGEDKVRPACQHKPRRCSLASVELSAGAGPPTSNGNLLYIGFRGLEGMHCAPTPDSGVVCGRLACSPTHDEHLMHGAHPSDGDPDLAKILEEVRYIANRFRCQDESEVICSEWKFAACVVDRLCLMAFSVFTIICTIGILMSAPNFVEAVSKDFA

One may read the IC50 as the concentration at which inhibition is half-maximal. With `c1c[nH]c(-c2nnc(N3CCN4CCC3CC4)o2)c1` [Compound 3, 2-(1,4-Diazabicyclo[3.2.2]nonan-4-yl)-5-(1H-pyrrol-2-yl)-1,3,4-oxadiazole free base], the IC50 (rat brain, concentration inhibiting specific binding of 3H-α-bungarotoxin by 50%, read-out: IC50 Inhibition of 3H-α-Bungarotoxine Binding) came out at 17 nM. The compound `FCCn1cccc1-c1nnc(N2CCN3CCC2CC3)o1` [Compound 1, 2-(1,4-Diazabicyclo[3.2.2]nonan-4-yl)-5-[1-(2-fluoroethyl)pyrrol-2-yl]-1,3,4-oxadiazole fumaric acid salt] returned an IC50 of 11 nM.

Values taken from patent US8946412B2 (priority 2009, dated 2015).
